Assay results reported in patent publication US11969428B2, “Methods and pharmaceutical compositions for treating lymphoid malignancy” (priority 2011, dated 2024).

How the values were obtained:
Assay in all cases: Ambit KinomeScan screening
Assay type in all cases: binding
Conditions in all cases: CAL-130 10 μM
OSR1 = molecular target: T1, OSR1 (Homo sapiens, UniProt O95747)
T1 construct: purchased Ambit (KinomeScan screening service)
Outline: (§1)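 Tagged kinases are exposed to an immobilized bait ligand with CAL-130 (10 μM) present. Kinase binding to the bait is then quantified relative to control. Results are given as % of control, where over 35% is scored as no hit.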

EGFR = molecular target: T2, EGFR (Homo sapiens, UniProt P00533)
T2 construct: unspecified tag; purchased Ambit (KinomeScan screening service)
Outline: as §1

EGFR(L747-T751DEL, SINS) = molecular target: T3, EGFR(L747-T751DEL, SINS) (Homo sapiens, UniProt P00533, DEL747-750/T751S)
T3 construct: unspecified tag; purchased Ambit (KinomeScan screening service)
Outline: as §1

LTK = molecular target: T4, LTK (Homo sapiens, UniProt P29376)
T4 construct: unspecified tag ('tagged kinases'); purchased Ambit (KinomeScan screening service)
Outline: as §1

LATS2 = molecular target: T5, LATS2 (Homo sapiens, UniProt Q9NRM7)
T5 construct: unspecified tag ('tagged kinases'); purchased Ambit (KinomeScan screening service)
Outline: as §1

BRAF = molecular target: T6, BRAF (Homo sapiens, UniProt P15056)
T6 construct: unspecified tag ("tagged kinases"); purchased Ambit (KinomeScan screening)
Outline: as §1

TRKA = molecular target: T7, TRKA (Homo sapiens, UniProt P04629)
T7 construct: unspecified tag (tagged kinase); purchased Ambit (KinomeScan screening)
Outline: as §1

ACVR1 = molecular target: T8, ACVR1 (Homo sapiens, UniProt Q04771)
T8 construct: unspecified tag ("tagged kinases"); purchased Ambit (KinomeScan screening)
Outline: as §1

IRAK3 = molecular target: T9, IRAK3 (Homo sapiens, UniProt Q9Y616)
T9 construct: purchased Ambit (KinomeScan screening)
Outline: as §1

FGR = molecular target: T10, FGR (Homo sapiens, UniProt P09769)
T10 construct: unspecified tag; purchased Ambit (KinomeScan screening service)
Outline: as §1

JNK1 = molecular target: T11, JNK1 (Homo sapiens, UniProt P45983)
T11 construct: purchased Ambit (KinomeScan screening)
Outline: as §1

MAP4K2 = molecular target: T12, MAP4K2 (Homo sapiens, UniProt Q12851)
T12 construct: Ambit (KinomeScan screening)
Outline: as §1

PIK4CB = molecular target: T13, PIK4CB (Homo sapiens, UniProt Q9UBF8)
T13 construct: unspecified tag; purchased Ambit (KinomeScan screening panel)
Outline: as §1

STK39 = molecular target: T14, STK39 (Homo sapiens, UniProt Q9UEW8)
T14 construct: tag (kind not specified); purchased Ambit (KinomeScan screening service)
Outline: as §1

AXL = molecular target: T15, AXL (Homo sapiens, UniProt P30530)
T15 construct: purchased Ambit (KinomeScan screening service)
Outline: as §1

PDPK1 = molecular target: T16, PDPK1 (Homo sapiens, UniProt O15530)
T16 construct: unspecified tag ('tagged kinases'); purchased Ambit (KinomeScan screening)
Outline: as §1

PIP5K2B = molecular target: T17, PIP5K2B (Homo sapiens, UniProt P78356)
T17 construct: unspecified tag; purchased Ambit (KinomeScan screening panel)
Outline: as §1

MARK3 = molecular target: T18, MARK3 (Homo sapiens, UniProt P27448)
T18 construct: purchased Ambit (KinomeScan screening)
Outline: as §1

ABL1(T315I) = molecular target: T19, ABL1(T315I) (Homo sapiens, UniProt P00519, T315I)
T19 construct: unspecified tag ("tagged kinases"); purchased Ambit (KinomeScan screening)
Outline: as §1

CDK3 = molecular target: T20, CDK3 (Homo sapiens, UniProt Q00526)
T20 construct: purchased Ambit (KinomeScan screening)
Outline: as §1

MARK1 = molecular target: T21, MARK1 (Homo sapiens, UniProt Q9P0L2)
T21 construct: Ambit (KinomeScan screening)
Outline: as §1

WEE1 = molecular target: T22, WEE1 (Homo sapiens, UniProt P30291)
T22 construct: purchased Ambit (KinomeScan screening service)
Outline: as §1

PRKD3 = molecular target: T23, PRKD3 (Homo sapiens, UniProt O94806)
T23 construct: tag (kind not specified); purchased Ambit (KinomeScan screening service)
Outline: as §1

TAOK3 = molecular target: T24, TAOK3 (Homo sapiens, UniProt Q9H2K8)
T24 construct: tag (kind not specified); purchased Ambit (KinomeScan screening service)
Outline: as §1

MAP4K4 = molecular target: T25, MAP4K4 (Homo sapiens, UniProt O95819)
T25 construct: Ambit (KinomeScan screening)
Outline: as §1

KIT(V559D, T670I) = molecular target: T26, KIT(V559D, T670I) (Homo sapiens, UniProt P10721, T670I/V559D)
T26 construct: unspecified tag ('tagged kinases'); purchased Ambit (KinomeScan screening)
Outline: as §1

BMPR1A = molecular target: T27, BMPR1A (Homo sapiens, UniProt P36894)
T27 construct: purchased Ambit (KinomeScan screening service)
Outline: as §1

SBK1 = molecular target: T28, SBK1 (Homo sapiens, UniProt Q52WX2)
T28 construct: tag, kind not specified; purchased Ambit (KinomeScan screening service)
Outline: as §1

TYRO3 = molecular target: T29, TYRO3 (Homo sapiens, UniProt Q06418)
T29 construct: tag, kind not specified; purchased Ambit (KinomeScan screening service)
Outline: as §1

p38-δ = molecular target: T30, p38-δ (Homo sapiens, UniProt O15264)
T30 construct: purchased Ambit (KinomeScan screening service)
Outline: as §1

STK33 = molecular target: T31, STK33 (Homo sapiens, UniProt Q9BYT3)
T31 construct: purchased Ambit (KinomeScan screening service)
Outline: as §1

VEGFR2 = molecular target: T32, VEGFR2 (Homo sapiens, UniProt P35968)
T32 construct: tag, kind not specified; purchased Ambit (KinomeScan screening service)
Outline: as §1

EPHB1 = molecular target: T33, EPHB1 (Homo sapiens, UniProt P54762)
T33 construct: purchased Ambit (KinomeScan screening service)
Outline: as §1

[1] = molecular target: T34, EGFR(L747-E749DEL, A750P) (Homo sapiens, UniProt P00533, A750P/DEL747-749)
T34 construct: unspecified tag; purchased Ambit (KinomeScan screening service)
Outline: as §1

RET(V804M) = molecular target: T35, RET(V804M) (Homo sapiens, UniProt P07949, V804M)
T35 construct: tag (kind not specified); purchased Ambit (KinomeScan screening service)
Outline: as §1

BLK = molecular target: T36, BLK (Homo sapiens, UniProt P51451)
T36 construct: purchased Ambit (KinomeScan screening service)
Outline: as §1

Measured: Percent of Control Binding

T11 sequence (P45983 whole entry): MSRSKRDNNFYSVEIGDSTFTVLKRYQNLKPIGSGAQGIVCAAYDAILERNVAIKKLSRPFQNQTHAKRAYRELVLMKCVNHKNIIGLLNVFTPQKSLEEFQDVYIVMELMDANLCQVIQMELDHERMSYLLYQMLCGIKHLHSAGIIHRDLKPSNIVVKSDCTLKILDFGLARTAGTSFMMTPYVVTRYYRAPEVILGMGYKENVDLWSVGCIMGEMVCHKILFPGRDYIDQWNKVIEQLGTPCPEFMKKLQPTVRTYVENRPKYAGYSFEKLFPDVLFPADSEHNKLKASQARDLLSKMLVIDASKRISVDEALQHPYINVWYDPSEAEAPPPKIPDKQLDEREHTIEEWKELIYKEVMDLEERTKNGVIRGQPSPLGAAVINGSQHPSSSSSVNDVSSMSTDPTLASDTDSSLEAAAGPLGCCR
T12 sequence (Q12851 whole entry): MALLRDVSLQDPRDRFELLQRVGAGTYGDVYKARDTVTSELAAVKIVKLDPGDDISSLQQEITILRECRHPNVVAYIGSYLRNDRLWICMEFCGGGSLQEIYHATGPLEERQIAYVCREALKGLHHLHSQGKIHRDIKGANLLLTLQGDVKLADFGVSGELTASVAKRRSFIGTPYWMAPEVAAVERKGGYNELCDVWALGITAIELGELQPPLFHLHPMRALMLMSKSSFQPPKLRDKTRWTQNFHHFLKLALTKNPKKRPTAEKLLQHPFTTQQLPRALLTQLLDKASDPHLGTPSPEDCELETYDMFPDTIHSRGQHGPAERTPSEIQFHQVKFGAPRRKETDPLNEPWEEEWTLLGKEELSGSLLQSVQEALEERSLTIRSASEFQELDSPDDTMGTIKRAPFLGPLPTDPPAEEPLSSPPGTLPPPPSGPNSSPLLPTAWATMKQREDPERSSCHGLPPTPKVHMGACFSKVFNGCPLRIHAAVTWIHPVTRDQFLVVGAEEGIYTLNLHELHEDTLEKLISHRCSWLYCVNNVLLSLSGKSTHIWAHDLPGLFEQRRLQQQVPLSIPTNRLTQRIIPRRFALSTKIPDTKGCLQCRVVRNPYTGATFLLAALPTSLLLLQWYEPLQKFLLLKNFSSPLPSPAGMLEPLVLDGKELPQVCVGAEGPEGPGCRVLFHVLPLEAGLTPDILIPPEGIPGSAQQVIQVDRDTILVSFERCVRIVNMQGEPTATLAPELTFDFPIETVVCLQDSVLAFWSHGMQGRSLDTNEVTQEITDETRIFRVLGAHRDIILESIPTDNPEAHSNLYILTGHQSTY
T7 sequence (P04629 33-796): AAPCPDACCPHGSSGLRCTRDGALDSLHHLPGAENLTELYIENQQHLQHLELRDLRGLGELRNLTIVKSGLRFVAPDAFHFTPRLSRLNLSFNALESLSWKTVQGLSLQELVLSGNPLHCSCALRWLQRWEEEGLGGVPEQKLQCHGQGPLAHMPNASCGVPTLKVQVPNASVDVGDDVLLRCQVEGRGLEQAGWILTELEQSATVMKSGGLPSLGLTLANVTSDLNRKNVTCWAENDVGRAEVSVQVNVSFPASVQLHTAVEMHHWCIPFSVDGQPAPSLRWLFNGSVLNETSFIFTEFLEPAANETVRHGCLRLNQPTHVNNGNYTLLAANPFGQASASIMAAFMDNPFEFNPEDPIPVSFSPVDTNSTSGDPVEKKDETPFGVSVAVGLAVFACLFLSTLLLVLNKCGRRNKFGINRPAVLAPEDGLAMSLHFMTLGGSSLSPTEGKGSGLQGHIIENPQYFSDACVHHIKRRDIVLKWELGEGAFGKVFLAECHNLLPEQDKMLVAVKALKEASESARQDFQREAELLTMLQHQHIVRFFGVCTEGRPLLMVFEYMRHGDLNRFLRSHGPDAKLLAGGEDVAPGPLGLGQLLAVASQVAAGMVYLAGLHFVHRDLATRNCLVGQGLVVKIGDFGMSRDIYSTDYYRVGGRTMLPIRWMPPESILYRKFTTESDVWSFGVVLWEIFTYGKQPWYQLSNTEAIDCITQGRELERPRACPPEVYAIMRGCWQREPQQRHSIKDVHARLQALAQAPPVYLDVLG
T24 sequence (Q9H2K8 whole entry): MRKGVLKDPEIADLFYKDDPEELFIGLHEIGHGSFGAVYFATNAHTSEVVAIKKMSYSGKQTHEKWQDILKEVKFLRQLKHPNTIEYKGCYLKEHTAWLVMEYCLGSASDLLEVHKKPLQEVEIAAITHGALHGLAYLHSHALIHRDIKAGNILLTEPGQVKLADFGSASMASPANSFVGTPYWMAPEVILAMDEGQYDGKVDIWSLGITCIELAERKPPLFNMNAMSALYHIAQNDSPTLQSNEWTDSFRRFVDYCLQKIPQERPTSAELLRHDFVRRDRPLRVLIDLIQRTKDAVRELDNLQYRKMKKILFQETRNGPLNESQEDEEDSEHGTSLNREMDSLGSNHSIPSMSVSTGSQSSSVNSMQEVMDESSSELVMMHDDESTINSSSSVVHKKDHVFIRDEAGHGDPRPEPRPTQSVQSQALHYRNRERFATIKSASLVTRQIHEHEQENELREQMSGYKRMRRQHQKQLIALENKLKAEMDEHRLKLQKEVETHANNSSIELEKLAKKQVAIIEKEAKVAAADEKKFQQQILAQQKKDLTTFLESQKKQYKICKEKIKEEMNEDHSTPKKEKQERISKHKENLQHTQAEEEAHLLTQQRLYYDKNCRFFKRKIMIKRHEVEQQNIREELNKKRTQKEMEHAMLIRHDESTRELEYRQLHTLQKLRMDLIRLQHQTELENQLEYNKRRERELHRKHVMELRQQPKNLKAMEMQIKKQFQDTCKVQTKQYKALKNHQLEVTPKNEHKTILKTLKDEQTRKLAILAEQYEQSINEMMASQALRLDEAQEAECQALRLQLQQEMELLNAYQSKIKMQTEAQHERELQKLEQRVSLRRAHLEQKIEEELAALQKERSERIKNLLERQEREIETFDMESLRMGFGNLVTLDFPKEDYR
T8 sequence (Q04771 21-509): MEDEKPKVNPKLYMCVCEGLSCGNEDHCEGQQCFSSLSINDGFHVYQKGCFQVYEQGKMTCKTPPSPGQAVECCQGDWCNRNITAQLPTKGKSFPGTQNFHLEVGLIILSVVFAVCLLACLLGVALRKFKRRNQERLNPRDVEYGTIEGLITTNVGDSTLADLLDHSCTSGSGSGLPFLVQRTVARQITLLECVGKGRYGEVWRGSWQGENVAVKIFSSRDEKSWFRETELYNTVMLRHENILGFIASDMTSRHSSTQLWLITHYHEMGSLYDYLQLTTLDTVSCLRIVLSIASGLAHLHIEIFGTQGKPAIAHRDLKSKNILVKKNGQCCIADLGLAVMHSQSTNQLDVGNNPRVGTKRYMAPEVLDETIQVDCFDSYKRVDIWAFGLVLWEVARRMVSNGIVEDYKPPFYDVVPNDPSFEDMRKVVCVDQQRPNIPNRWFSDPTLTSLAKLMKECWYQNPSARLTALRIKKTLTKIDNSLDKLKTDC
T27 sequence (P36894 24-532): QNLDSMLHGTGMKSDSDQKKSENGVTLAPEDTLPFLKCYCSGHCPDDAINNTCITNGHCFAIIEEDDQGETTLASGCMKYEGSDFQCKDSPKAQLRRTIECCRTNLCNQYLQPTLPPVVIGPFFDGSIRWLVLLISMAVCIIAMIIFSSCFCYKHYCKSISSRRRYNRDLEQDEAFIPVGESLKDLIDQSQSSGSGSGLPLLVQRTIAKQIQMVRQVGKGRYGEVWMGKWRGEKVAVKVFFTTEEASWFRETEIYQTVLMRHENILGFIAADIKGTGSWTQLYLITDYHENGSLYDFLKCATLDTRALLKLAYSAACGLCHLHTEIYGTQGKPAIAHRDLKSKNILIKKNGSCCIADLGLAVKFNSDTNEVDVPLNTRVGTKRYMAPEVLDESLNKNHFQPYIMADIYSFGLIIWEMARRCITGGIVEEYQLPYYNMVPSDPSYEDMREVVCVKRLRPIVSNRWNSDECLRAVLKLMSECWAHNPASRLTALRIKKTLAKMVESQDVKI
T15 sequence (P30530 26-894): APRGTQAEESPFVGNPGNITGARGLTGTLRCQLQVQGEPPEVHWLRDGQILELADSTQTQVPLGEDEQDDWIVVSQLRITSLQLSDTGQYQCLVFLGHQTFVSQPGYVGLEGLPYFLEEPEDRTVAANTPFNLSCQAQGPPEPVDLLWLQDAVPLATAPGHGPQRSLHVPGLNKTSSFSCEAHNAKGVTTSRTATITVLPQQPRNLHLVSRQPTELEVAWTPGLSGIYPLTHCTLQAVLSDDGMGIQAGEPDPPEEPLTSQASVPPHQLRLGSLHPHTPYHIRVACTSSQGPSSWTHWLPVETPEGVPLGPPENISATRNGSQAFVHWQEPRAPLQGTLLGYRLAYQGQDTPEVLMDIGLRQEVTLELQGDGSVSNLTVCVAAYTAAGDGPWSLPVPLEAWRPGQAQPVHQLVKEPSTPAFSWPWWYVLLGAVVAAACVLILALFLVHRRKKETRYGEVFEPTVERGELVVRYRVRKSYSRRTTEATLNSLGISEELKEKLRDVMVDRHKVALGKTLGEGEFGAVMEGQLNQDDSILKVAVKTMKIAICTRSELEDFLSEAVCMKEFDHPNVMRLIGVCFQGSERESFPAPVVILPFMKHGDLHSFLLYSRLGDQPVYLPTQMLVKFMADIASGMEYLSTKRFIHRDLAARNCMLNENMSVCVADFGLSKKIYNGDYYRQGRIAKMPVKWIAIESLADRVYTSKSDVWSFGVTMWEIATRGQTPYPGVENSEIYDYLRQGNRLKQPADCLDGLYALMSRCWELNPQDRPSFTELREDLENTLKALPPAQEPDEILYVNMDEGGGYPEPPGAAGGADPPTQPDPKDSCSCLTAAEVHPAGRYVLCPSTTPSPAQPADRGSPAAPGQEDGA

Cc1ccccc1-n1c(C(C)Nc2nc(N)nc3nc[nH]c23)nc2cccc(C)c2c1=O (stereo not drawn) [CAL-130]
100%: all assays above
